Experimental data from US8637252B2, “Methods and compositions for determining altered susceptibility of HIV-1 to anti-HIV drugs” (Monogram Biosciences, Inc., priority 2011, dated 2014).
Values joined by “and” are separate entries in the source; they are usually repeats but may differ in a detail not shown here. Equal values may be shown once.

Tested on: HIV-1 (patient-derived PR-RT segment)
Test: phenotypic drug resistance test, resistance test vectors with patient-derived PR-RT segment, luciferase, 293 cells
Format: cell-based
From the text: Patient-derived segments corresponding to the HIV protease and reverse transcriptase coding regions (hereinafter “PR-RT) were amplified by the reverse transcription-polymerase chain reaction method (RT-PCR) using viral RNA isolated from viral particles present in the plasma or serum of HIV-infected individuals as follows. Viral RNA was isolated from the plasma or serum using oligo-dT magnetic beads (Dynal Biotech, Oslo, Norway), followed by washing and elution of viral RNA. The RT-PCR protocol was divided into two steps. A retroviral reverse transcriptase (e.g. Moloney MuLV reverse transcriptase (Roche Molecular Systems, Inc., Branchburg, N.J.; Invitrogen, Carlsbad, Calif.), or avian myeloblastosis virus (AMV) reverse transcriptase, (Boehringer Mannheim, Indianapolis, Ind.)) was used to copy viral RNA into cDNA. The cDNA was then amplified using a thermostable DNA polymerase (e.g. Taq (Roche Molecular Systems, Inc., Branchburg, N.J.), Tth (Roche Molecular Systems, Inc., Branchburg, N.J.), PRIMEZYME. (enzyme_isolated from Thermus brockianus, Biometra, Gottingen, Germany)) or a combination of thermostable polymerases as described for the performance of “long PCR” (Barnes, W. M., 1994, Proc. Natl. Acad. Sci, USA 91, 2216-20) (e.g. Expand High Fidelity PCR System (Taq+Pwo), (Boehringer Mannheim. Indianapolis, Ind.); GENEAMP® XL PCR kit (PCR kit using_Tth+Vent), (Roche Molecular Systems, Inc., Branchburg, N.J.); or ADVANTAGE II®, Clontech, Palo Alto, Calif.)
PCR primers were designed to introduce ApaI and PinAl recognition sites into the 5′ or 3′ end of the PCR product, respectively.
Resistance test vectors incorporating the “test” patient-derived segments were constructed as described in U.S. Pat. No. 5,837,464 using an amplified DNA product of 1.5 kB prepared by RT-PCR using viral RNA as a template and oligonucleotides PDS Apa, PDS Age, PDS PCR6, Apa-gen, Apa-c, Apa-f, Age-gen, Age-a, RT-ad, RT-b, RT-c, RT-f, and/or RT-g as primers, followed by digestion with ApaI and Agel or the isoschizomer PinAl. To ensure that the plasmid DNA corresponding to the resultant fitness test vector comprises a representative sample of the HIV viral quasi-species present in the serum of a given patient, many (>250) independent E. coli transformants obtained in the construction of a given fitness test vector were pooled and used for the preparation of plasmid DNA.
A packaging expression vector encoding an amphotrophic MuLV 4070A env gene product enables production in a resistance test vector host cell comprising the vector alone viral particles which can efficiently infect human target cells. Vectors encoding all HIV genes with the exception of env were used to transfect a packaging host cell (once transfected the host cell is referred to as a fitness test vector host cell). The packaging expression vector which encodes the amphotrophic MuLV 4070A env gene product is used with the resistance test vector to enable production in the resistance test vector host cell of infectious pseudotyped resistance test vector viral particles.
Drug resistance tests performed with resistance test vectors were carried out using packaging host and target host cells consisting of the human embryonic kidney cell line 293.
Resistance tests were carried out with resistance test vectors using two host cell types. Resistance test vector viral particles were produced by a first host cell (the resistance test vector host cell) that was prepared by transfecting a packaging host cell with the resistance test vector and the packaging expression vector. The resistance test vector viral particles were then used to infect a second host cell (the target host cell) in which the expression of the indicator gene is measured.
The resistance test vectors containing a functional luciferase gene cassette were constructed as described above and host cells were transfected with the resistance test vector DNA. […]

[1] = Sample 47 (K103K/N, V106V/A, Y181Y/C, G190G/A)
[2] = Sample 58 (K103N, Y181Y/C, G190G/A)
[3] = Sample 62 (K103H, P225P/H, T369T/I)
[4] = Sample 90 (K103K/N, Y181C, G190A)

## CC(C)Nc1cccnc1N1CCN(C(=O)c2cc3cc(NS(C)(=O)=O)ccc3[nH]2)CC1 [DLV, delavirdine]
Sample 31 (K103N)
  fold change in IC50, PR-RT: 16.4 fold
Sample 33 (K103S)
  fold change in IC50, PR-RT: 8.7 fold
Sample 34
  fold change in IC50, PR-RT: 0.5 fold
Sample 35 (K103H)
  fold change in IC50, PR-RT: 6.5 fold
Sample 36 (K103K/W)
  fold change in IC50, PR-RT: 6.7 fold
Sample 38 (K103N)
  fold change in IC50, PR-RT: 128.0 fold
Sample 39 (T369A)
  fold change in IC50, PR-RT: 0.2 fold
Sample 42 (G190G/A)
  fold change in IC50, PR-RT: 0.4 fold
Sample 45
  fold change in IC50, PR-RT: 0.1 fold
[1]
  fold change in IC50, PR-RT: 6.2 fold
Sample 50 (K103N)
  fold change in IC50, PR-RT: 250.0 fold
Sample 51
  fold change in IC50, PR-RT: 0.3 fold
Sample 52
  fold change in IC50, PR-RT: 3.1 fold
[2]
  fold change in IC50, PR-RT: 149.6 fold
[3]
  fold change in IC50, PR-RT: 16.0 fold and 16.00 fold
Sample 64 (T369T/A)
  fold change in IC50, PR-RT: 1.6 fold
Sample 69
  fold change in IC50, PR-RT: 1.4 fold
Sample 72
  fold change in IC50, PR-RT: 0.9 fold
Sample 80 (K103K/N, Y181Y/C)
  fold change in IC50, PR-RT: 65.0 fold
Sample 81 (K103N, P225H)
  fold change in IC50, PR-RT: 12.0 fold
Sample 84
  fold change in IC50, PR-RT: 0.9 fold
Sample 85
  fold change in IC50, PR-RT: 25.2 fold
Sample 87
  fold change in IC50, PR-RT: 0.7 fold
Sample 89 (L1001, K103N)
  fold change in IC50, PR-RT: 250.0 fold
[4]
  fold change in IC50, PR-RT: 4.1 fold
Sample 92
  fold change in IC50, PR-RT: 1.1 fold
Sample 93
  fold change in IC50, PR-RT: 0.3 fold

## O=C1Nc2ccc(Cl)cc2[C@@](C#CC2CC2)(C(F)(F)F)O1 [EFV, efavirenz]
Sample 31 (K103N)
  fold change in IC50, PR-RT: 22.8 fold
Sample 33 (K103S)
  fold change in IC50, PR-RT: 7.1 fold
Sample 34
  fold change in IC50, PR-RT: 0.4 fold
Sample 35 (K103H)
  fold change in IC50, PR-RT: 9.3 fold
Sample 36 (K103K/W)
  fold change in IC50, PR-RT: 6.7 fold
Sample 38 (K103N)
  fold change in IC50, PR-RT: 42.0 fold
Sample 39 (T369A)
  fold change in IC50, PR-RT: 0.3 fold
Sample 42 (G190G/A)
  fold change in IC50, PR-RT: 3.1 fold
Sample 45
  fold change in IC50, PR-RT: 0.2 fold
[1]
  fold change in IC50, PR-RT: 123.9 fold
Sample 50 (K103N)
  fold change in IC50, PR-RT: 63.2 fold
Sample 51
  fold change in IC50, PR-RT: 0.5 fold
Sample 52
  fold change in IC50, PR-RT: 1.3 fold
[2]
  fold change in IC50, PR-RT: 26.4 fold
[3]
  fold change in IC50, PR-RT: 20 fold and 20.0 fold and 20.00 fold
Sample 64 (T369T/A)
  fold change in IC50, PR-RT: 1.1 fold
Sample 69
  fold change in IC50, PR-RT: 0.8 fold
Sample 72
  fold change in IC50, PR-RT: 0.5 fold
Sample 80 (K103K/N, Y181Y/C)
  fold change in IC50, PR-RT: 11.0 fold
Sample 81 (K103N, P225H)
  fold change in IC50, PR-RT: 98.0 fold
Sample 84
  fold change in IC50, PR-RT: 0.7 fold
Sample 85
  fold change in IC50, PR-RT: 22.0 fold
Sample 87
  fold change in IC50, PR-RT: 0.9 fold
Sample 89 (L1001, K103N)
  fold change in IC50, PR-RT: 700.0 fold
[4]
  fold change in IC50, PR-RT: 50.5 fold
Sample 92
  fold change in IC50, PR-RT: 1.0 fold
Sample 93
  fold change in IC50, PR-RT: 0.8 fold

## Cc1ccnc2c1NC(=O)c1cccnc1N2C1CC1 [NVP, nevirapine]
Sample 31 (K103N)
  fold change in IC50, PR-RT: 88.4 fold
Sample 33 (K103S)
  fold change in IC50, PR-RT: 23.3 fold
Sample 34
  fold change in IC50, PR-RT: 0.3 fold
Sample 35 (K103H)
  fold change in IC50, PR-RT: 25.2 fold
Sample 36 (K103K/W)
  fold change in IC50, PR-RT: 13.0 fold
Sample 38 (K103N)
  fold change in IC50, PR-RT: 114.0 fold
Sample 39 (T369A)
  fold change in IC50, PR-RT: 0.3 fold
Sample 42 (G190G/A)
  fold change in IC50, PR-RT: 34.0 fold
Sample 45
  fold change in IC50, PR-RT: 0.3 fold
[1]
  fold change in IC50, PR-RT: 400.0 fold
Sample 50 (K103N)
  fold change in IC50, PR-RT: 153.9 fold
Sample 51
  fold change in IC50, PR-RT: 0.4 fold
Sample 52
  fold change in IC50, PR-RT: 2.0 fold
[2]
  fold change in IC50, PR-RT: 400.0 fold
[3]
  fold change in IC50, PR-RT: 64 fold and 64.0 fold and 64.00 fold
Sample 64 (T369T/A)
  fold change in IC50, PR-RT: 1.0 fold
Sample 69
  fold change in IC50, PR-RT: 1.0 fold
Sample 72
  fold change in IC50, PR-RT: 0.7 fold
Sample 80 (K103K/N, Y181Y/C)
  fold change in IC50, PR-RT: 46.0 fold
Sample 81 (K103N, P225H)
  fold change in IC50, PR-RT: 92.0 fold
Sample 84
  fold change in IC50, PR-RT: 0.8 fold
Sample 85
  fold change in IC50, PR-RT: 131.7 fold
Sample 87
  fold change in IC50, PR-RT: 0.8 fold
Sample 89 (L1001, K103N)
  fold change in IC50, PR-RT: 37.0 fold
[4]
  fold change in IC50, PR-RT: 400.0 fold
Sample 92
  fold change in IC50, PR-RT: 1.1 fold
Sample 93
  fold change in IC50, PR-RT: 1.6 fold
